Assay results as given in the NIST ThermoML archive (doi:10.1021/je0501843).
Numbers after ± are expanded uncertainties.

Test: wn = mass fraction of the nth substance listed
Details: Fluid (supercritical or subcritical phases), isochoric method, w1 = 0.5001

FC(F)C(F)(F)F [pentafluoroethane] + FCF
Details | mass density [kg/m3]
363 K, 13894 kPa | 858.1 ± 1.7
364 K, 6970 kPa | 475.8 ± 1.3
364 K, 7223 kPa | 525.7 ± 1.3
364 K, 7494 kPa | 571.2 ± 1.3
364 K, 7828 kPa | 614.6 ± 1.4
364 K, 10192 kPa | 760.2 ± 1.6
364 K, 14207 kPa | 858 ± 1.7
365 K, 7077 kPa | 475.8 ± 1.2
365 K, 7344 kPa | 525.7 ± 1.3
365 K, 7632 kPa | 571.2 ± 1.3
365 K, 7982 kPa | 614.6 ± 1.3
365 K, 10427 kPa | 760.1 ± 1.6
365 K, 14520 kPa | 857.9 ± 1.7
366 K, 7184 kPa | 475.8 ± 1.2
366 K, 7465 kPa | 525.6 ± 1.2
366 K, 7771 kPa | 571.1 ± 1.3
366 K, 8137 kPa | 614.5 ± 1.3
366 K, 10664 kPa | 760 ± 1.6
366 K, 14835 kPa | 857.8 ± 1.7
367 K, 7291 kPa | 475.8 ± 1.2
367 K, 7587 kPa | 525.6 ± 1.2
367 K, 7907 kPa | 571.1 ± 1.3
367 K, 8294 kPa | 614.5 ± 1.3
367 K, 10900 kPa | 760 ± 1.6
367 K, 15148 kPa | 857.7 ± 1.7
368 K, 7397 kPa | 475.8 ± 1.2
368 K, 7708 kPa | 525.6 ± 1.2
368 K, 8044 kPa | 571.1 ± 1.3
368 K, 8449 kPa | 614.5 ± 1.3
368 K, 11133 kPa | 759.9 ± 1.6
368 K, 15462 kPa | 857.7 ± 1.7
369 K, 7504 kPa | 475.7 ± 1.2
369 K, 7831 kPa | 525.6 ± 1.2
369 K, 8183 kPa | 571 ± 1.3
369 K, 8605 kPa | 614.4 ± 1.3
369 K, 11369 kPa | 759.9 ± 1.6
369 K, 15777 kPa | 857.6 ± 1.7
370 K, 7612 kPa | 475.7 ± 1.1
370 K, 7953 kPa | 525.5 ± 1.2
370 K, 8323 kPa | 571 ± 1.3
370 K, 8762 kPa | 614.4 ± 1.3
370 K, 11608 kPa | 759.8 ± 1.5
370 K, 16094 kPa | 857.5 ± 1.7
371 K, 7719 kPa | 475.7 ± 1.1
371 K, 8075 kPa | 525.5 ± 1.2
371 K, 8460 kPa | 571 ± 1.2
371 K, 8917 kPa | 614.3 ± 1.3
371 K, 11844 kPa | 759.7 ± 1.5
371 K, 16410 kPa | 857.4 ± 1.7
372 K, 7825 kPa | 475.7 ± 1.1
372 K, 8198 kPa | 525.5 ± 1.2
372 K, 8601 kPa | 571 ± 1.2
372 K, 9073 kPa | 614.3 ± 1.3
372 K, 12081 kPa | 759.7 ± 1.5
372 K, 16724 kPa | 857.4 ± 1.7
373 K, 7931 kPa | 475.7 ± 1.1
373 K, 8321 kPa | 525.5 ± 1.2
373 K, 8740 kPa | 570.9 ± 1.2
373 K, 9230 kPa | 614.3 ± 1.3
373 K, 12318 kPa | 759.6 ± 1.5
373 K, 17037 kPa | 857.3 ± 1.7
374 K, 8039 kPa | 475.6 ± 1.1
374 K, 8445 kPa | 525.4 ± 1.2
374 K, 8878 kPa | 570.9 ± 1.2
374 K, 9389 kPa | 614.2 ± 1.3
374 K, 12556 kPa | 759.6 ± 1.5
374 K, 17355 kPa | 857.2 ± 1.7
375 K, 8147 kPa | 475.6 ± 1.1
375 K, 8567 kPa | 525.4 ± 1.2
375 K, 9016 kPa | 570.9 ± 1.2
375 K, 9544 kPa | 614.2 ± 1.3
375 K, 12795 kPa | 759.5 ± 1.5
375 K, 17669 kPa | 857.1 ± 1.7
376 K, 8254 kPa | 475.6 ± 1.1
376 K, 8690 kPa | 525.4 ± 1.1
376 K, 9155 kPa | 570.8 ± 1.2
376 K, 9701 kPa | 614.2 ± 1.3
376 K, 13033 kPa | 759.5 ± 1.5
376 K, 17984 kPa | 857.1 ± 1.7
377 K, 8362 kPa | 475.6 ± 1.1
377 K, 8813 kPa | 525.4 ± 1.1
377 K, 9295 kPa | 570.8 ± 1.2
377 K, 9858 kPa | 614.1 ± 1.3
377 K, 13272 kPa | 759.4 ± 1.5
377 K, 18301 kPa | 857 ± 1.7
378 K, 8469 kPa | 475.6 ± 1.1
378 K, 8937 kPa | 525.3 ± 1.1
378 K, 9437 kPa | 570.8 ± 1.2
378 K, 10018 kPa | 614.1 ± 1.3
378 K, 13511 kPa | 759.3 ± 1.5
378 K, 18619 kPa | 856.9 ± 1.7
379 K, 8575 kPa | 475.5 ± 1.1
379 K, 9060 kPa | 525.3 ± 1.1
379 K, 9576 kPa | 570.7 ± 1.2
379 K, 10174 kPa | 614 ± 1.3
379 K, 13747 kPa | 759.3 ± 1.5
379 K, 18935 kPa | 856.8 ± 1.7
380 K, 8683 kPa | 475.5 ± 1
380 K, 9183 kPa | 525.3 ± 1.1
380 K, 9715 kPa | 570.7 ± 1.2
380 K, 10331 kPa | 614 ± 1.3
380 K, 13988 kPa | 759.2 ± 1.5
381 K, 8790 kPa | 475.5 ± 1
381 K, 9306 kPa | 525.2 ± 1.1
381 K, 9856 kPa | 570.7 ± 1.2
381 K, 10492 kPa | 614 ± 1.3
381 K, 14227 kPa | 759.2 ± 1.5
382 K, 8897 kPa | 475.5 ± 1
382 K, 9432 kPa | 525.2 ± 1.1
382 K, 9996 kPa | 570.6 ± 1.2
382 K, 10651 kPa | 613.9 ± 1.3
382 K, 14466 kPa | 759.1 ± 1.5
383 K, 9005 kPa | 475.4 ± 1
383 K, 9553 kPa | 525.2 ± 1.1
383 K, 10136 kPa | 570.6 ± 1.2
383 K, 10808 kPa | 613.9 ± 1.3
383 K, 14706 kPa | 759 ± 1.5
384 K, 9112 kPa | 475.4 ± 1
384 K, 9679 kPa | 525.2 ± 1.1
384 K, 10277 kPa | 570.6 ± 1.2
384 K, 10967 kPa | 613.8 ± 1.3
384 K, 14944 kPa | 759 ± 1.5
385 K, 9219 kPa | 475.4 ± 1
385 K, 9804 kPa | 525.1 ± 1.1
385 K, 10418 kPa | 570.5 ± 1.2
385 K, 11125 kPa | 613.8 ± 1.3
385 K, 15188 kPa | 758.9 ± 1.5
386 K, 9326 kPa | 475.4 ± 1
386 K, 9929 kPa | 525.1 ± 1.1
386 K, 10558 kPa | 570.5 ± 1.2
386 K, 11283 kPa | 613.8 ± 1.3
386 K, 15426 kPa | 758.9 ± 1.5
387 K, 9434 kPa | 475.3 ± 1
387 K, 10051 kPa | 525.1 ± 1.1
387 K, 10699 kPa | 570.5 ± 1.2
387 K, 11442 kPa | 613.7 ± 1.3
387 K, 15666 kPa | 758.8 ± 1.5
388 K, 9540 kPa | 475.3 ± 1
388 K, 10174 kPa | 525 ± 1.1
388 K, 10840 kPa | 570.4 ± 1.2
388 K, 11602 kPa | 613.7 ± 1.3
388 K, 15904 kPa | 758.7 ± 1.5
389 K, 9649 kPa | 475.3 ± 1
389 K, 10296 kPa | 525 ± 1.1
389 K, 10980 kPa | 570.4 ± 1.2
389 K, 11761 kPa | 613.6 ± 1.3
389 K, 16147 kPa | 758.7 ± 1.5
390 K, 9756 kPa | 475.3 ± 1
390 K, 10421 kPa | 525 ± 1.1
390 K, 11124 kPa | 570.3 ± 1.2
390 K, 11922 kPa | 613.6 ± 1.3
390 K, 16388 kPa | 758.6 ± 1.5
391 K, 9862 kPa | 475.2 ± 1
391 K, 10547 kPa | 524.9 ± 1.1
391 K, 11263 kPa | 570.3 ± 1.2
391 K, 12081 kPa | 613.6 ± 1.3
391 K, 16627 kPa | 758.6 ± 1.5
392 K, 9969 kPa | 475.2 ± 1
392 K, 10670 kPa | 524.9 ± 1.1
392 K, 11403 kPa | 570.3 ± 1.2
392 K, 12239 kPa | 613.5 ± 1.3
392 K, 16868 kPa | 758.5 ± 1.5
393 K, 10077 kPa | 475.2 ± 1
393 K, 10795 kPa | 524.9 ± 1.1
393 K, 11546 kPa | 570.2 ± 1.2
393 K, 12400 kPa | 613.5 ± 1.3
393 K, 17110 kPa | 758.4 ± 1.5
394 K, 10185 kPa | 475.2 ± 1
394 K, 10920 kPa | 524.9 ± 1.1
394 K, 11688 kPa | 570.2 ± 1.2
394 K, 12560 kPa | 613.4 ± 1.3
394 K, 17351 kPa | 758.4 ± 1.5
395 K, 10292 kPa | 475.1 ± 1
395 K, 11045 kPa | 524.8 ± 1.1
395 K, 11829 kPa | 570.2 ± 1.2
395 K, 12720 kPa | 613.4 ± 1.3
395 K, 17590 kPa | 758.3 ± 1.5
396 K, 10400 kPa | 475.1 ± 1
396 K, 11168 kPa | 524.8 ± 1.1
396 K, 11972 kPa | 570.1 ± 1.2
396 K, 12880 kPa | 613.4 ± 1.3
396 K, 17831 kPa | 758.3 ± 1.5
397 K, 10508 kPa | 475.1 ± 1
397 K, 11292 kPa | 524.8 ± 1.1
397 K, 12113 kPa | 570.1 ± 1.2
397 K, 13040 kPa | 613.3 ± 1.3
397 K, 18073 kPa | 758.2 ± 1.5
398 K, 10616 kPa | 475 ± 1
398 K, 11415 kPa | 524.7 ± 1.1
398 K, 12256 kPa | 570.1 ± 1.2
398 K, 13199 kPa | 613.3 ± 1.3
398 K, 18315 kPa | 758.1 ± 1.5
399 K, 10723 kPa | 475 ± 1
399 K, 11538 kPa | 524.7 ± 1.1
399 K, 12395 kPa | 570 ± 1.2
399 K, 13361 kPa | 613.2 ± 1.3
399 K, 18556 kPa | 758.1 ± 1.5
